# Measured values: patent US8877748B2, “Heterocyclic fused anthraquinone derivatives, manufacturing method and pharmaceutical composition using thereof” (National Defense Medical Center, priority 2012, dated 2014)
# Legend:
# [1] = tested on: HL-60, TB; experiment: NCI one-dose screening, leukemia HL-60, TB; assay type: cell-based, human; conditions: 10 μM
# [2] = tested on: MOLT-4; experiment: NCI one-dose screening, leukemia MOLT-4; assay type: cell-based, human; conditions: 10 μM
# [3] = tested on: SR; experiment: NCI one-dose screening, leukemia SR; assay type: cell-based, human; conditions: 10 μM
# [4] = tested on: PRMI-8226 cell line; experiment: NCI one-dose screening, leukemia PRMI-8226; assay type: cell-based, human; conditions: 10 μM
# [5] = tested on: K562cell line; experiment: NCI one-dose screening, leukemia K562; assay type: cell-based, human; conditions: 10 μM
# [6] = tested on: EKVX; experiment: NCI one-dose screening, non-small cell lung cancer EKVX; assay type: cell-based, human; conditions: 10 μM
# [7] = tested on: HOP-62; experiment: NCI one-dose screening, non-small cell lung cancer HOP-62; assay type: cell-based, human; conditions: 10 μM
# [8] = tested on: HOP-92; experiment: NCI one-dose screening, non-small cell lung cancer HOP-92; assay type: cell-based, human; conditions: 10 μM
# [9] = tested on: NCI-H226; experiment: NCI one-dose screening, non-small cell lung cancer NCI-H226; assay type: cell-based, human; conditions: 10 μM
# [10] = tested on: NCI-H23; experiment: NCI one-dose screening, non-small cell lung cancer NCI-H23; assay type: cell-based, human; conditions: 10 μM
# [11] = tested on: NCI-H460; experiment: NCI one-dose screening, non-small cell lung cancer NCI-H460; assay type: cell-based, human; conditions: 10 μM
# [12] = tested on: NCI-H522; experiment: NCI one-dose screening, non-small cell lung cancer NCI-H522; assay type: cell-based, human; conditions: 10 μM
# [13] = tested on: A549/ATCC; experiment: NCI one-dose screening, non-small cell lung cancer A549/ATCC; assay type: cell-based, human; conditions: 10 μM
# [14] = tested on: COLO 205; experiment: NCI one-dose screening, colon cancer COLO 205; assay type: cell-based, human; conditions: 10 μM
# [15] = tested on: HCC-2998; experiment: NCI one-dose screening, colon cancer HCC-2998; assay type: cell-based, human; conditions: 10 μM
# [16] = tested on: HCT-116; experiment: NCI one-dose screening, colon cancer HCT-116; assay type: cell-based, human; conditions: 10 μM
# [17] = tested on: HCT-15; experiment: NCI one-dose screening, colon cancer HCT-15; assay type: cell-based, human; conditions: 10 μM
# [18] = tested on: KM12; experiment: NCI one-dose screening, colon cancer KM12; assay type: cell-based, human; conditions: 10 μM
# [19] = tested on: HT29; experiment: NCI one-dose screening, colon cancer HT29; assay type: cell-based, human; conditions: 10 μM
# [20] = tested on: SF-268; experiment: NCI one-dose screening, CNS cancer SF-268; assay type: cell-based, human; conditions: 10 μM
# [21] = tested on: SF-295; experiment: NCI one-dose screening, CNS cancer SF-295; assay type: cell-based, human; conditions: 10 μM
# [22] = tested on: SF-539; experiment: NCI one-dose screening, CNS cancer SF-539; assay type: cell-based, human; conditions: 10 μM
# [23] = tested on: SNB-19; experiment: NCI one-dose screening, CNS cancer SNB-19; assay type: cell-based, human; conditions: 10 μM
# [24] = tested on: SNB-75; experiment: NCI one-dose screening, CNS cancer SNB-75; assay type: cell-based, human; conditions: 10 μM
# [25] = tested on: U251; experiment: NCI one-dose screening, CNS cancer U251; assay type: cell-based, human; conditions: 10 μM
# [26] = tested on: LOX IMVI; experiment: NCI one-dose screening, melanoma LOX IMVI; assay type: cell-based, human; conditions: 10 μM
# [27] = tested on: MALME-3M; experiment: NCI one-dose screening, melanoma MALME-3M; assay type: cell-based, human; conditions: 10 μM
# [28] = tested on: M14; experiment: NCI one-dose screening, melanoma M14; assay type: cell-based, human; conditions: 10 μM
# [29] = tested on: UACC-62; experiment: NCI one-dose screening, melanoma UACC-62; assay type: cell-based, human; conditions: 10 μM
# [30] = tested on: UACC-257; experiment: NCI one-dose screening, melanoma UACC-257; assay type: cell-based, human; conditions: 10 μM
# [31] = tested on: SK-MEL-2; experiment: NCI one-dose screening, melanoma SK-MEL-2; assay type: cell-based, human; conditions: 10 μM
# [32] = tested on: SK-MEL-28; experiment: NCI one-dose screening, melanoma SK-MEL-28; assay type: cell-based, human; conditions: 10 μM
# [33] = tested on: SK-MEL-5; experiment: NCI one-dose screening, melanoma SK-MEL-5; assay type: cell-based, human; conditions: 10 μM
# [34] = tested on: IGROV1; experiment: NCI one-dose screening, ovarian cancer IGROV1; assay type: cell-based, human; conditions: 10 μM
# [35] = tested on: OVCAR-3; experiment: NCI one-dose screening, ovarian cancer OVCAR-3; assay type: cell-based, human; conditions: 10 μM
# [36] = tested on: OVCAR-5; experiment: NCI one-dose screening, ovarian cancer OVCAR-5; assay type: cell-based, human; conditions: 10 μM
# [37] = tested on: OVCAR-8; experiment: NCI one-dose screening, ovarian cancer OVCAR-8; assay type: cell-based, human; conditions: 10 μM
# [38] = tested on: SK-OV-3; experiment: NCI one-dose screening, ovarian cancer SK-OV-3; assay type: cell-based, human; conditions: 10 μM
# [39] = tested on: 786-O; experiment: NCI one-dose screening, renal cancer 786-O; assay type: cell-based, human; conditions: 10 μM
# [40] = tested on: CAKI-1; experiment: NCI one-dose screening, renal cancer CAKI-1; assay type: cell-based, human; conditions: 10 μM
# [41] = NCI one-dose screening, renal cancer A489; assay type: cell-based, human; conditions: 10 μM
# [42] = tested on: ACHN; experiment: NCI one-dose screening, renal cancer ACHN; assay type: cell-based, human; conditions: 10 μM
# [43] = tested on: SN12C; experiment: NCI one-dose screening, renal cancer SN12C; assay type: cell-based, human; conditions: 10 μM
# [44] = tested on: TK-10; experiment: NCI one-dose screening, renal cancer TK-10; assay type: cell-based, human; conditions: 10 μM
# [45] = tested on: UO-31; experiment: NCI one-dose screening, renal cancer UO-31; assay type: cell-based, human; conditions: 10 μM
# [46] = tested on: RXF, 393; experiment: NCI one-dose screening, renal cancer RXF, 393; assay type: cell-based, human; conditions: 10 μM
# [47] = tested on: DU145; experiment: NCI one-dose screening, prostate cancer DU145; assay type: cell-based, human; conditions: 10 μM
# [48] = tested on: PC-3; experiment: NCI one-dose screening, prostate cancer PC-3; assay type: cell-based, human; conditions: 10 μM
# [49] = tested on: MCF7; experiment: NCI one-dose screening, breast cancer MCF7; assay type: cell-based, human; conditions: 10 μM
# [50] = tested on: MDA-MB-231/ATCC; experiment: NCI one-dose screening, breast cancer MDA-MB-231/ATCC; assay type: cell-based, human; conditions: 10 μM
# [51] = tested on: MDA-MB-468; experiment: NCI one-dose screening, breast cancer MDA-MB-468; assay type: cell-based, human; conditions: 10 μM
# [52] = tested on: NCl/ADR-RES; experiment: NCI one-dose screening, breast cancer NCl/ADR-RES; assay type: cell-based, human; conditions: 10 μM; listed under Ovarian cancer
# [53] = tested on: BT-549; experiment: NCI one-dose screening, breast cancer BT-549; assay type: cell-based, human; conditions: 10 μM
# [54] = tested on: T-47D; experiment: NCI one-dose screening, breast cancer T-47D; assay type: cell-based, human; conditions: 10 μM
# [55] = tested on: MDA, -MB-435; experiment: NCI one-dose screening, breast cancer MDA, -MB-435; assay type: cell-based, human; conditions: 10 μM; listed under Melanoma
# [56] = tested on: human tumor cell lines; experiment: NCI one-dose screening, Mean / Delta / Range of growth percent over all tested cell lines; assay type: cell-based; conditions: 10 μM
compound,measurement,setting,value
"O=C1c2ccccc2C(=O)c2c1cc(Sc1ccccn1)c1nsnc21 [C58, 4-(pyridin-2-yl-thio)anthra[2,1-c][1,2,5] thia-diazole-6,11-dione]",Growth Percent HL-60(TB),[1],−40.05%
same,Growth Percent MOLT-4,[2],−41.19%
same,Growth Percent SR,[3],0.05%
same,Growth Percent RPMI-8226,[4],−4.48%
same,Growth Percent K562,[5],−23.03%
same,Growth Percent EKVX,[6],97.65%
same,Growth Percent HOP-62,[7],81.44%
same,Growth Percent HOP-92,[8],−44.56%
same,Growth Percent NCI-H226,[9],82.43%
same,Growth Percent NCI-H23,[10],4.86%
same,Growth Percent NCI-H460,[11],89.65%
same,Growth Percent NCI-H522,[12],48.83%
same,Growth Percent A549/ATCC,[13],96.53%
same,Growth Percent COLO 205,[14],111.91%
same,Growth Percent HCC-2998,[15],106.02%
same,Growth Percent HCT-116,[16],−84.89%
same,Growth Percent HCT-15,[17],82.58%
same,Growth Percent KM12,[18],87.50%
same,Growth Percent HT29,[19],108.08%
same,Growth Percent SF-268,[20],37.83%
same,Growth Percent SF-295,[21],78.47%
same,Growth Percent SF-539,[22],93.92%
same,Growth Percent SNB-19,[23],103.09%
same,Growth Percent SNB-75,[24],70.82%
same,Growth Percent U251,[25],43.78%
same,Growth Percent LOX IMVI,[26],−54.85%
same,Growth Percent MALME-3M,[27],18.08%
same,Growth Percent M14,[28],73.52%
same,Growth Percent UACC-62,[29],69.46%
same,Growth Percent UACC-257,[30],−10.49%
same,Growth Percent SK-MEL-2,[31],14.45%
same,Growth Percent SK-MEL-28,[32],108.55%
same,Growth Percent SK-MEL-5,[33],61.76%
same,Growth Percent IGROV1,[34],−30.93%
same,Growth Percent OVCAR-3,[35],−90.05%
same,Growth Percent OVCAR-5,[36],118.16%
same,Growth Percent OVCAR-8,[37],18.67%
same,Growth Percent SK-OV-3,[38],115.11%
same,Growth Percent 786-0,[39],−96.82%
same,Growth Percent CAKI-1,[40],59.22%
same,Growth Percent A498,[41],68.74%
same,Growth Percent ACHN,[42],−71.76%
same,Growth Percent SN12C,[43],77.39%
same,Growth Percent TK-10,[44],80.94%
same,Growth Percent UO-31,[45],−79.21%
same,Growth Percent RXF 393,[46],60.19%
same,Growth Percent DU145,[47],58.15%
same,Growth Percent PC-3,[48],14.77%
same,Growth Percent MCF7,[49],68.59%
same,Growth Percent MDA-MB-231/ATCC,[50],4.55%
same,Growth Percent MDA-MB-468,[51],−80.08%
same,Growth Percent NCI/ADR-RES,[52],37.25%
same,Growth Percent BT-549,[53],76.58%
same,Growth Percent T-47D,[54],−52.85%
same,Growth Percent MDA-MB-435,[55],−80.50%
same,Growth Percent Delta,[56]; delta over all cell lines,125.38%
same,Growth Percent Mean,[56]; mean over all cell lines,28.56%
same,Growth Percent Range,[56]; range over all cell lines,214.98%
